According to patent publication US12398154B2, “Azaquinazoline pan-KRas inhibitors” (Mirati Therapeutics, Inc., priority 2020, dated 2025):

Experiments:
Assay in all cases: biochemical
KRas WT = KRas WT (Homo sapiens, UniProt P01116);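 note: binding to KRas read as TR-FRET displacement after a one-hour room-temperature incubation, IC50 derived from percent-of-control values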
Method: (§1) The ability of a compound to bind to KRas was measured using a TR-FRET displacement assay. […] After a 60-minute incubation at room temperature, the reaction was measured using a BMG LABTECH CLARIO star Plus via TR-FRET. […] The POC values were fit to a 4-parameter IC50 equation and the IC50 value reported.

KRas G12S = KRas G12S (Homo sapiens, UniProt P01116, G12S);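 note: TR-FRET displacement binding to KRas, read after one hour incubation at room temperature, IC50 from four-parameter fit of percent of control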
Sequence of KRas G12S (P01116 1-169 isoform P01116-2 G12S): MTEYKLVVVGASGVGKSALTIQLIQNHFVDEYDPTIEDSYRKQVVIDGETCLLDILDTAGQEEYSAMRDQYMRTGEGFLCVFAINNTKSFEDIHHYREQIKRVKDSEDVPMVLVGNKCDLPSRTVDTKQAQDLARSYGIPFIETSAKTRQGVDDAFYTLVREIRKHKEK
Method: as §1

KRas G12D = KRas G12D (Homo sapiens, UniProt P01116, G12D);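 note: TR-FRET displacement binding assay on KRas, read after a one-hour incubation at room temperature, IC50 fitted from percent-of-control values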
Sequence of KRas G12D (P01116 1-169 isoform P01116-2 G12D): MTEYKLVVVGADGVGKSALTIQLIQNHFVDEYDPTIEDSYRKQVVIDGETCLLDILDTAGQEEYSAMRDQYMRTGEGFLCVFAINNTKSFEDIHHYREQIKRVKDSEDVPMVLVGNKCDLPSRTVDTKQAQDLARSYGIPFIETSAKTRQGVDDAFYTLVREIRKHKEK
Method: as §1

KRas G12V = KRas G12V (Homo sapiens, UniProt P01116, G12V);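 note: KRas binding measured by TR-FRET displacement at room temperature, IC50 fitted from percent of control values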
Sequence of KRas G12V (P01116 1-169 isoform P01116-2 G12V): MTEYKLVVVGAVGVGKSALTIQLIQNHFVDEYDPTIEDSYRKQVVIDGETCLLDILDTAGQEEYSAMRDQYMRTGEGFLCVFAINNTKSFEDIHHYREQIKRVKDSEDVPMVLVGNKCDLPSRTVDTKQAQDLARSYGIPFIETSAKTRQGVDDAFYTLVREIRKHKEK
Method: as §1

KRas G12C = KRas G12C (Homo sapiens, UniProt P01116, G12C);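 note: binding to KRas assessed by TR-FRET displacement after one hour incubation at room temperature, potency fitted from percent-of-control values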
Sequence of KRas G12C (P01116 1-169 isoform P01116-2 G12C): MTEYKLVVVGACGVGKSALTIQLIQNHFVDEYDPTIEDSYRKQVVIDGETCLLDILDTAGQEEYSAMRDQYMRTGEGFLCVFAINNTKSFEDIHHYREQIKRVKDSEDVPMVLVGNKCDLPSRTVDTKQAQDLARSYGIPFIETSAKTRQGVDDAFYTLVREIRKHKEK
Method: as §1

KRas G12A = KRas G12A (Homo sapiens, UniProt P01116, G12A);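 note: binding to KRas measured by TR-FRET displacement after one hour at room temperature, IC50 from a four-parameter fit of percent-of-control values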
Sequence of KRas G12A (P01116 1-169 isoform P01116-2 G12A): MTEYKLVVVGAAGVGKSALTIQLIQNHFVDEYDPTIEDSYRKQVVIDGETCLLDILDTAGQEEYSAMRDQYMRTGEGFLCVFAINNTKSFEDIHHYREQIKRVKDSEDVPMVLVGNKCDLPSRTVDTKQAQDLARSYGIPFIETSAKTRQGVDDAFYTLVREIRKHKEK
Method: as §1

KRas G12R = KRas G12R (Homo sapiens, UniProt P01116, G12R);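 note: TR-FRET displacement assay of compound binding to KRas, read after one hour at room temperature, potency from a four-parameter fit of percent-of-control values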
Sequence of KRas G12R (P01116 1-169 isoform P01116-2 G12R): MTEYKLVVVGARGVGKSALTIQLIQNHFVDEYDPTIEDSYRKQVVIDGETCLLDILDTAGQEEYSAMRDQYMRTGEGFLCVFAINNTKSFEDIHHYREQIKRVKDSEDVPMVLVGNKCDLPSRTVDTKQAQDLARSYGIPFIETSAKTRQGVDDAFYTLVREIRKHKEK
Method: as §1

Sequence of KRas WT (P01116 1-169 isoform P01116-2): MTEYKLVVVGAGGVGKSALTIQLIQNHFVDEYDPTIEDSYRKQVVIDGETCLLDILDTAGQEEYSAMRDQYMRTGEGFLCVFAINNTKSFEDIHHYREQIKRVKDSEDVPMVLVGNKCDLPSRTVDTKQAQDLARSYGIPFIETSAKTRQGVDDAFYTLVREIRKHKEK

In the case of `OCC1CN(c2nc(OCC34CCCN3CCC4)nc3c(F)c(-c4cccc5cccc(F)c45)ncc23)CCCO1` (stereo not drawn) [Example 269, (4-(8-fluoro-7-(8-fluoronaphthalen-1-yl)-2-((hexahydro-1H-pyrrolizin-7a-yl)methoxy)pyrido[4,3-d]pyrimidin-4-yl)-1,4-oxazepan-2-yl)methanol], the IC50 (KRas WT) is reported as 1060 nM, the IC50 (KRas G12S) is reported as 725 nM and the IC50 (KRas G12D) is reported as 1910 nM. It also gave an IC50 (KRas G12V) of 1000 nM, an IC50 (KRas G12C) of 608 nM and an IC50 (KRas G12A) of 1050 nM. The IC50 (KRas G12R) was 1060 nM.
With `O=C1NC(=O)C2(CCCN(c3nc(OCC45CCCN4CCC5)nc4c(F)c(-c5cccc6cccc(CO)c56)ncc34)C2)N1` (stereo not drawn) [Example 447, 7-(8-fluoro-2-((hexahydro-1H-pyrrolizin-7a-yl)methoxy)-7-(8-(hydroxymethyl)naphthalen-1-yl)pyrido[4,3-d]pyrimidin-4-yl)-1,3,7-triazaspiro[4.5]decane-2,4-dione] the IC50 (KRas WT) was 557 nM, the IC50 (KRas G12S) was 587 nM and the IC50 (KRas G12D) was 1100 nM. For the same compound, the IC50 (KRas G12V) was 744 nM, the IC50 (KRas G12C) was 608 nM and the IC50 (KRas G12A) was 665 nM. It also gave an IC50 (KRas G12R) of 964 nM.
`CC1(O)CCCN(c2nc(OCC34CCCN3CCC4)nc3c(F)c(-c4cccc5cccc(C6CC6)c45)ncc23)C1` (stereo not drawn) [Example 440, 1-(7-(8-cyclopropylnaphthalen-1-yl)-8-fluoro-2-((hexahydro-1H-pyrrolizin-7a-yl)methoxy)pyrido[4,3-d]pyrimidin-4yl)-3-methylpiperidin-3-ol] gave an IC50 (KRas WT) of 714 nM, an IC50 (KRas G12S) of 690 nM and an IC50 (KRas G12D) of 510 nM. It also gave an IC50 (KRas G12V) of 844 nM, an IC50 (KRas G12C) of 550 nM and an IC50 (KRas G12A) of 758 nM. The IC50 (KRas G12R) was 1720 nM.
For `NS(=O)(=O)CC1CCCN(c2nc(OCC34CCCN3CCC4)nc3c(F)c(-c4cccc5ccccc45)ncc23)C1` (stereo not drawn) [Example 436], the IC50 (KRas WT) was 193 nM, the IC50 (KRas G12S) was 217 nM and the IC50 (KRas G12D) was 798 nM. For the same compound, the IC50 (KRas G12V) was 652 nM, the IC50 (KRas G12C) was 271 nM and the IC50 (KRas G12A) was 204 nM. For the same compound, the IC50 (KRas G12R) was 331 nM.
`CCc1cccc2cccc(-c3ncc4c(N5CCOCC(CO)C5)nc(OCC56CCCN5CCC6)nc4c3F)c12` (stereo not drawn) [Example 289, (4-(7-(8-ethylnaphthalen-1-yl)-8-fluoro-2-((hexahydro-1H-pyrrolizin-7a-yl)methoxy)pyrido[4,3-d]pyrimidin-4-yl)-1,4-oxazepan-6-yl)methanol] showed an IC50 (KRas WT) of 818 nM, an IC50 (KRas G12S) of 520 nM and an IC50 (KRas G12D) of 5610 nM. It also gave an IC50 (KRas G12V) of 807 nM, an IC50 (KRas G12C) of 407 nM and an IC50 (KRas G12A) of 607 nM. It also gave an IC50 (KRas G12R) of 754 nM.
`Cc1ccc(O)cc1-c1ncc2c(N3CCCC(C)(O)C3)nc(OCC34CCCN3CCC4)nc2c1F` (stereo not drawn) [Example 432, 1-(8-fluoro-2-((hexahydro-1H-pyrrolizin-7a-yl)methoxy)-7-(5-hydroxy-2-methylphenyl)pyrido[4,3-d]pyrimidin-4-yl)-3-methylpiperidin-3-ol] was tested, and the IC50 (KRas WT) was 2480 nM, the IC50 (KRas G12S) was 2410 nM and the IC50 (KRas G12D) was 1140 nM. The IC50 (KRas G12V) was 1930 nM, the IC50 (KRas G12C) was 2410 nM and the IC50 (KRas G12A) was 2270 nM. It also gave an IC50 (KRas G12R) of 3040 nM.
In the case of `O=C1C[C@@]2(CCN(c3nc(OCC45CCCN4CCC5)nc4c(F)c(-c5cccc6cccc(F)c56)ncc34)C2)CN1` [Example 280, (S)-7-(8-fluoro-7-(8-fluoronaphthalen-1-yl)-2-((hexahydro-1H-pyrrolizin-7a-yl)methoxy)pyrido[4,3-d]pyrimidin-4-yl)-2,7-diazaspiro[4.4]nonan-3-one], the IC50 (KRas WT) is reported as no less than 100000 nM, the IC50 (KRas G12S) is reported as no less than 100000 nM and the IC50 (KRas G12D) is reported as no less than 100000 nM. It also gave an IC50 (KRas G12V) of no less than 100000 nM, an IC50 (KRas G12C) of 9860 nM and an IC50 (KRas G12A) of no less than 100000 nM. The IC50 (KRas G12R) was no less than 100000 nM.
In the case of `O=C1CC2(CCCN(c3nc(OCC45CCCN4CCC5)nc4c(F)c(-c5cccc6cccc(F)c56)ncc34)C2)C(=O)N1` (stereo not drawn) [Example 265, 7-(8-fluoro-7-(8-fluoronaphthalen-1-yl)-2-((hexahydro-1H-pyrrolizin-7a-yl)methoxy)pyrido[4,3-d]pyrimidin-4-yl)-2,7-diazaspiro[4.5]decane-1,3-dione], the IC50 (KRas WT) is reported as 2460 nM, the IC50 (KRas G12S) is reported as 2510 nM and the IC50 (KRas G12D) is reported as 5310 nM. The IC50 (KRas G12V) was 2740 nM, the IC50 (KRas G12C) was 3310 nM and the IC50 (KRas G12A) was 3020 nM. The IC50 (KRas G12R) was 1920 nM.
`CCc1cccc2cccc(-c3ncc4c(N5CC6CC(O)C(C6)C5)nc(OCC56CCCN5CCC6)nc4c3F)c12` (stereo not drawn) [Example 290, 3-(7-(8-ethylnaphthalen-1-yl)-8-fluoro-2-((hexahydro-1H-pyrrolizin-7a-yl)methoxy)pyrido[4,3-d]pyrimidin-4-yl)-3-azabicyclo[3,2,1]octan-6-ol] gave an IC50 (KRas WT) of 276 nM, an IC50 (KRas G12S) of 147 nM and an IC50 (KRas G12D) of 582 nM. For the same compound, the IC50 (KRas G12V) was 171 nM, the IC50 (KRas G12C) was 207 nM and the IC50 (KRas G12A) was 183 nM. The IC50 (KRas G12R) was 176 nM.
`CNc1cc2n(n1)CCCN(c1nc(OCC34CCCN3CCC4)nc3c(F)c(-c4cccc5cccc(F)c45)ncc13)C2` [Example 263, 5-(8-fluoro-7-(8-fluoronaphthalen-1-yl)-2-((tetrahydro-1H-pyrrolizin-7a(5H)-yl)methoxy)pyrido[4,3-d]pyrimidin-4-yl)-N-methyl-5,6,7,8-tetrahydro-4H-pyrazolo[1,5-a][1,4]diazepin-2-amine] gave an IC50 (KRas WT) of 9090 nM, an IC50 (KRas G12S) of 3550 nM and an IC50 (KRas G12D) of 1980 nM. The IC50 (KRas G12V) was 4030 nM, the IC50 (KRas G12C) was 4410 nM and the IC50 (KRas G12A) was 4940 nM. It also gave an IC50 (KRas G12R) of 3040 nM.
`CCc1cccc2cccc(-c3ncc4c(N5CCCC(CS(N)(=O)=O)C5)nc(OCC56CCCN5CCC6)nc4c3F)c12` (stereo not drawn) [Example 285, 1-(1-(7-(8-ethylnaphthalen-1-yl)-8-fluoro-2-((tetrahydro-1H-pyrrolizin-7a(5H)-yl)methoxy)pyrido[4,3-d]pyrimidin-4-yl)piperidin-3-yl)methanesulfonamide] showed an IC50 (KRas WT) of 323 nM, an IC50 (KRas G12S) of 359 nM and an IC50 (KRas G12D) of 976 nM. It also gave an IC50 (KRas G12V) of 864 nM, an IC50 (KRas G12C) of 426 nM and an IC50 (KRas G12A) of 367 nM. The IC50 (KRas G12R) was 350 nM.
In the case of `O=C1NC(=O)C2(CCCN(c3nc(OCC45CCCN4CCC5)nc4c(F)c(-c5cccc6cccc(CF)c56)ncc34)C2)N1` (stereo not drawn) [Example 462, 7-(8-fluoro-7-(8-(fluoromethyl)naphthalen-1-yl)-2-((hexahydro-1H-pyrrolizin-7a-yl)methoxy)pyrido[4,3-d]pyrimidin-4-yl)-1,3,7-triazaspiro[4.5]decane-2,4-dione], the IC50 (KRas WT) is reported as 493 nM, the IC50 (KRas G12S) is reported as 311 nM and the IC50 (KRas G12D) is reported as 880 nM. It also gave an IC50 (KRas G12V) of 350 nM, an IC50 (KRas G12C) of 430 nM and an IC50 (KRas G12A) of 321 nM. The IC50 (KRas G12R) was 418 nM.
Work on `C#Cc1cccc2cccc(-c3ncc4c(N5CCCC(CS(N)(=O)=O)C5)nc(OCC56CCCN5CCC6)nc4c3F)c12` (stereo not drawn) [Example 437, 1-(1-(7-(8-ethynylnaphthalene-1-yl)-8-fluoro-2-((hexahydro-1H-pyrrolizin-7a-yl)methoxy)pyrido[4,3-d]pyrimidin-4-yl)piperidin-3-yl)methanesulfonamide] yielded an IC50 (KRas WT) of 715 nM, an IC50 (KRas G12S) of 904 nM and an IC50 (KRas G12D) of 1430 nM. For the same compound, the IC50 (KRas G12V) was 2680 nM, the IC50 (KRas G12C) was 1400 nM and the IC50 (KRas G12A) was 1360 nM. The IC50 (KRas G12R) was 2760 nM.
`CCc1c(F)ccc2cc(O)cc(-c3ncc4c(N5CCC[C@@](C)(O)C5)nc(C(=O)NC(C)CN(C)C)nc4c3F)c12` (stereo partly drawn) [Example 312, N-(1-(dimethylamino)propan-2-yl)-7-(8-ethyl-7-fluoro-3-hydroxynaphthalen-1-yl)-8-fluoro-4-((R)-3-hydroxy-3-methylpiperidin-1-yl)pyrido[4,3-d]pyrimidine-2-carboxamide] showed an IC50 (KRas WT) of 202 nM, an IC50 (KRas G12S) of 172 nM and an IC50 (KRas G12D) of 388 nM. For the same compound, the IC50 (KRas G12V) was 254 nM, the IC50 (KRas G12C) was 212 nM and the IC50 (KRas G12A) was 156 nM. The IC50 (KRas G12R) was 203 nM.
`Cc1ccc2[nH]ncc2c1-c1ncc2c(N3CCCC(C)(O)C3)nc(OCC34CCCN3CCC4)nc2c1F` (stereo not drawn) [Example 430, 1-(8-fluoro-2-((hexahydro-1H-pyrrolizin-7a-yl)methoxy)-7-(5-methyl-1H-indazol-4-yl)pyrido[4,3-d]pyrimidin-4-yl)-3-methylpiperidin-3-ol] showed an IC50 (KRas WT) of 8050 nM, an IC50 (KRas G12S) of 7720 nM and an IC50 (KRas G12D) of 6450 nM. It also gave an IC50 (KRas G12V) of 4760 nM, an IC50 (KRas G12C) of 7830 nM and an IC50 (KRas G12A) of 6820 nM. The IC50 (KRas G12R) was 8770 nM.
Work on `CCc1cccc2cccc(-c3ncc4c(N5CCCC(c6nc[nH]n6)C5)nc(OCC56CCCN5CCC6)nc4c3F)c12` (stereo not drawn) [Example 295, 4-(3-(1H-1,2,4-triazol-3-yl)piperidin-1-yl)-7-(8-ethylnaphthalen-1-yl)-8-fluoro-2-((hexahydro-1H-pyrrolizin-7a-yl)methoxy)pyrido[4,3-d]pyrimidine] yielded an IC50 (KRas WT) of 2850 nM, an IC50 (KRas G12S) of 2380 nM and an IC50 (KRas G12D) of 2450 nM. For the same compound, the IC50 (KRas G12V) was 948 nM, the IC50 (KRas G12C) was 1900 nM and the IC50 (KRas G12A) was 1800 nM. For the same compound, the IC50 (KRas G12R) was 593 nM.
Work on `NS(=O)(=O)CC1CCCN(c2nc(OCC34CCCN3CCC4)nc3c(F)c(-c4cccc5cccc(CO)c45)ncc23)C1` (stereo not drawn) [Example 439, 1-(1-(8-fluoro-2-((hexahydro-1H-pyrrolizin-7a-yl)methoxy)-7-(8-(hydroxymethyl)naphthalen-1-yl)pyrido[4,3-d]pyrimidin-4-yl)piperidin-3-yl)methanesulfonamide] yielded an IC50 (KRas WT) of 2030 nM, an IC50 (KRas G12S) of 2260 nM and an IC50 (KRas G12D) of 7970 nM. The IC50 (KRas G12V) was 5790 nM, the IC50 (KRas G12C) was 2530 nM and the IC50 (KRas G12A) was 2150 nM. It also gave an IC50 (KRas G12R) of 2830 nM.
Compound `O=C1CC2(CCCN(c3nc(OCC45CCCN4CCC5)nc4c(F)c(-c5cccc6cccc(Cl)c56)ncc34)C2)N1` (stereo not drawn) [Example 283, 6-(7-(8-chloronaphthalen-1-yl)-8-fluoro-2-((tetrahydro-1H-pyrrolizin-7a(5H)-yl)methoxy)pyrido[4,3-d]pyrimidin-4-yl)-1,6-diazaspiro[3.5]nonan-2-one] has an IC50 (KRas WT) of 113 nM, an IC50 (KRas G12S) of 91 nM and an IC50 (KRas G12D) of 97 nM. For the same compound, the IC50 (KRas G12V) was 90 nM, the IC50 (KRas G12C) was 77 nM and the IC50 (KRas G12A) was 97 nM. It also gave an IC50 (KRas G12R) of 129 nM.
